The values below are quoted from earlier work in patent publication US20230133919A1, “COMPOSITIONS AND RELATED METHODS FOR REDUCING VAPOR EFFECT OF VOLATILE HERBICIDES” (BOARD OF TRUSTEES OF MICHIGAN STATE UNIVERSITY, priority 2020, published 2023).

The conditions of the data set: approximate.
Regarding `CNC.O=C(O)COc1ccc(Cl)cc1Cl` [2,4-D (dimethylamine salt)], the vapor pressure was ~1.3×10^−5 Pa.

On to `CC(C)OC(=O)COc1ccc(Cl)cc1Cl` [2,4-D (isopropyl ester)], for which the vapor pressure is ~1.9×10^1 Pa.

`CCCCC(CC)COC(=O)COc1ccc(Cl)cc1Cl` (stereo not shown) [2,4-D (2-ethylhexyl ester)]: the vapor pressure is listed as ~4.8×10^−4 Pa.

Turning to `CCCCOCCOC(=O)COc1ccc(Cl)cc1Cl` [2,4-D (butoxyethyl ester)], the vapor pressure was ~3.2×10^−4 Pa.
